# Assays:
# [1] = target: human Orexin type 1 receptors (Homo sapiens (Human), UniProt O43613); experiment: Scintillation Proximity Assay (SPA) binding assay, [3H]SB-674042 displacement, CHO-hOX1 membranes
# [2] = target: human Orexin type 2 receptors (Homo sapiens (Human), UniProt O43614); experiment: Scintillation Proximity Assay (SPA) binding assay, [3H]EMPA displacement, HEK-hOX2 membranes
# Sequence of human Orexin type 2 receptors (O43614 whole entry): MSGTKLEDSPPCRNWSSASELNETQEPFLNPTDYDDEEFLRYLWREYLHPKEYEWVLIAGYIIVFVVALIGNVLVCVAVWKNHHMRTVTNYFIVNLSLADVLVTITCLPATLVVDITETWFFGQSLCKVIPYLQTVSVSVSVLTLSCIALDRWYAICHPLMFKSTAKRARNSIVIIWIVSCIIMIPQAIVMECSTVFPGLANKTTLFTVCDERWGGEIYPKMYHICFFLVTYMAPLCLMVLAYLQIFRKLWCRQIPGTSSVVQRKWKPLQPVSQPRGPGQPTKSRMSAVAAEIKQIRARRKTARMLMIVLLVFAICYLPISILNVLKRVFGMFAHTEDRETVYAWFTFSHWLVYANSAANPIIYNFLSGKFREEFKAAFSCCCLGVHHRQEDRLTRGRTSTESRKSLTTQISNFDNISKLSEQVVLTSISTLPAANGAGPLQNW
# Sequence of human Orexin type 1 receptors (O43613 whole entry): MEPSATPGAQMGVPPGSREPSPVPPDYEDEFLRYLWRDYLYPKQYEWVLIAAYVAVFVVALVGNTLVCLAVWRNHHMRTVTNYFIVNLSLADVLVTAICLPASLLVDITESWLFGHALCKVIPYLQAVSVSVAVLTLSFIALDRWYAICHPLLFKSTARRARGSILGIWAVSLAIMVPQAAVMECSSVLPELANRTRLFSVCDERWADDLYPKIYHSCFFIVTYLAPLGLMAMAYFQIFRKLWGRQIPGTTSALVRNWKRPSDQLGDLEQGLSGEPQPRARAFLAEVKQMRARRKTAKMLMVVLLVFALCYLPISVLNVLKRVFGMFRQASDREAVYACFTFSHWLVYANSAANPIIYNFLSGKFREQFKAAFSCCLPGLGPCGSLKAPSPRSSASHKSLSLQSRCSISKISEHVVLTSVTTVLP
smiles,measurement,setting,value
"Cc1ccc(OCC2[C@H](C)C3CC(C3)N2C(=O)c2nc(C)ccc2-n2nccn2)nc1 (mixture of isomers) [Example 100, cis-4-methyl-2-[6-methyl-3-(2H-1,2,3-triazol-2-yl)pyridine-2-carbonyl]-3-{[(5-methylpyridin-2-yl)oxy]methyl}-2-azabicyclo[3.1.1]heptane]",OX1 pKi (SPA binding),"[1]; Table 1, [3H]SB-674042 2 nM",7.03
same,OX2 pKi (SPA binding),"[2]; Table 1, [3H]EMPA 2 nM",5.96
"Cc1ccc(-n2nccn2)c(C(=O)N2C3CC(C3)[C@H](C)C2COc2ccc(F)c(F)c2)n1 (mixture of isomers) [Example 111, trans-3-[(3,4-difluorophenoxy)methyl]-4-methyl-2-[6-methyl-3-(2H-1,2,3-triazol-2-yl)pyridine-2-carbonyl]-2-azabicyclo[3.1.1]heptane]",OX1 pKi (SPA binding),"[1]; Table 1, [3H]SB-674042 2 nM",7.53
same,OX2 pKi (SPA binding),"[2]; Table 1, [3H]EMPA 2 nM",5.99
"Cc1ccc(-n2nccn2)c(C(=O)N2C3CC(C3)[C@@H](C)C2COc2ccc(C(F)(F)F)cn2)n1 (mixture of isomers) [Example 129, cis-4-methyl-2-[6-methyl-3-(2H-1,2,3-triazol-2-yl)pyridine-2-carbonyl]-3-({[5-(trifluoromethyl)pyridin-2-yl]oxy}methyl)-2-azabicyclo[3.1.1]heptane]",OX1 pKi (SPA binding),"[1]; Table 2, [3H]SB-674042 2 nM",6.81
same,OX2 pKi (SPA binding),"[2]; Table 2, [3H]EMPA 2 nM",5.14
"C[C@@H]1C2CC(C2)N(C(=O)c2cc(C#N)ccc2-n2nccn2)C1CNc1nc2cccnc2s1 (stereo partly drawn) [Example 231, cis-3-{4-methyl-3-[({[1,3]thiazolo[5,4-b]pyridin-2-yl}amino)methyl]-2-azabicyclo[3.1.1]heptane-2-carbonyl}-4-(2H-1,2,3-triazol-2-yl)benzonitrile]",OX1 pKi (SPA binding),"[1]; Table 2, [3H]SB-674042 2 nM",8.2
same,OX2 pKi (SPA binding),"[2]; Table 2, [3H]EMPA 2 nM",5.21
"C[C@@H]1C2CC(C2)N(C(=O)c2nn(C)cc2-c2ccccc2)C1CNc1ccc(C(F)(F)F)cn1 (mixture of isomers) [Example 210, cis-N-{[4-methyl-2-(1-methyl-4-phenyl-1H-pyrazole-3-carbonyl)-2-azabicyclo[3.1.1]heptan-3-yl]methyl}-5-(trifluoromethyl)pyridin-2-amine]",OX1 pKi (SPA binding),"[1]; Table 2, [3H]SB-674042 2 nM",8.69
same,OX2 pKi (SPA binding),"[2]; Table 2, [3H]EMPA 2 nM",5.84
"Cc1ccc(-n2nccn2)c(C(=O)N2C3CC(C3)[C@@H](C)C2CNc2cnc3ccccc3n2)n1 (mixture of isomers) [Example 158, cis-N-({4-methyl-2-[6-methyl-3-(2H-1,2,3-triazol-2-yl)pyridine-2-carbonyl]-2-azabicyclo[3.1.1]heptan-3-yl}methyl)quinoxalin-2-amine]",OX1 pKi (SPA binding),"[1]; Table 2, [3H]SB-674042 2 nM",8.4
same,OX2 pKi (SPA binding),"[2]; Table 2, [3H]EMPA 2 nM",5.74
"Cc1ccc(-n2nccn2)c(C(=O)N2C3CC(C3)[C@@H](C)C2CNc2cccc(C(F)(F)F)n2)n1 (mixture of isomers) [Example 197, cis-N-({4-methyl-2-[6-methyl-3-(2H-1,2,3-triazol-2-yl)pyridine-2-carbonyl]-2-azabicyclo[3.1.1]heptan-3-yl}methyl)-6-(trifluoromethyl)pyridin-2-amine]",OX1 pKi (SPA binding),"[1]; Table 2, [3H]SB-674042 2 nM",6.99
same,OX2 pKi (SPA binding),"[2]; Table 2, [3H]EMPA 2 nM",5.76
"C[C@@H]1C2CC(C2)N(C(=O)c2cc(Cl)ccc2-n2nccn2)C1CNc1nc2cccnc2s1 (mixture of isomers) [Example 234, cis-N-({2-[5-chloro-2-(2H-1,2,3-triazol-2-yl)benzoyl]-4-methyl-2-azabicyclo[3.1.1]heptan-3-yl}methyl)-[1,3]thiazolo[5,4-b]pyridin-2-amine]",OX1 pKi (SPA binding),"[1]; Table 2, [3H]SB-674042 2 nM",8.45
same,OX2 pKi (SPA binding),"[2]; Table 2, [3H]EMPA 2 nM",5.46
"Cc1cnc(-n2nccn2)c(C(=O)N2C3CC(C3)[C@@H](C)C2COc2ccc(F)cc2)n1 (mixture of isomers) [Example 145, cis-3-[(4-fluorophenoxy)methyl]-4-methyl-2-[6-methyl-3-(2H-1,2,3-triazol-2-yl)pyrazine-2-carbonyl]-2-azabicyclo[3.1.1]heptane]",OX1 pKi (SPA binding),"[1]; Table 2, [3H]SB-674042 2 nM",7.03
same,OX2 pKi (SPA binding),"[2]; Table 2, [3H]EMPA 2 nM",5.62
Cc1ccc(-n2nccn2)c(C(=O)N2C3CC(C3)[C@H](C)C2CNc2nc3ccc(F)cc3s2)n1 (some centres unmarked) [Example 147],OX1 pKi (SPA binding),"[1]; Table 2, [3H]SB-674042 2 nM",7.57
same,OX2 pKi (SPA binding),"[2]; Table 2, [3H]EMPA 2 nM",6.66
"Cc1nc(C(=O)N2C3CC(C3)[C@H](C)[C@@H]2COc2cc3ccccc3cn2)c(-c2ccccc2)s1 (single isomer, unassigned) [Example 89, 3-{[(3S,4R or 3R,4S)-4-methyl-2-(2-methyl-5-phenyl-1,3-thiazole-4-carbonyl)-2-azabicyclo[3.1.1]heptan-3-yl]methoxy}isoquinoline]",Ki,"[1]; Table 1, [3H]SB-674042 2 nM, read-out: OX1 pKi (SPA binding) (converted)",0.00138 µM
same,Ki,"[2]; Table 1, [3H]EMPA 2 nM, read-out: OX2 pKi (SPA binding) (converted)",1 µM
"Cc1nc(C(=O)N2[C@H]3C[C@H](C3)[C@@H](C)[C@H]2COc2ccc(F)cc2)c(-c2ccccn2)s1 (racemic) [Example 132, cis-3-[(4-fluorophenoxy)methyl]-4-methyl-2-[2-methyl-5-(pyridin-2-yl)-1,3-thiazole-4-carbonyl]-2-azabicyclo[3.1.1]heptane]",OX1 pKi (SPA binding),"[1]; Table 2, [3H]SB-674042 2 nM",7.97
same,OX2 pKi (SPA binding),"[2]; Table 2, [3H]EMPA 2 nM",6.72
"Cc1ccc(-n2nccn2)c(C(=O)N2C3CC(C3)[C@@H](C)C2CNc2ncc3ccccc3n2)n1 (stereo partly drawn) [Example 155, cis-N-({4-methyl-2-[6-methyl-3-(2H-1,2,3-triazol-2-yl)pyridin-2-carbonyl]-2-azabicyclo[3.1.1]heptan-3-yl}methyl)quinazolin-2-amine]",OX1 pKi (SPA binding),"[1]; Table 2, [3H]SB-674042 2 nM",7.71
same,OX2 pKi (SPA binding),"[2]; Table 2, [3H]EMPA 2 nM",5.49
"Cc1ccc(-c2ncc(F)cn2)c(C(=O)N2C3CC(C3)[C@@H](C)C2COc2ccc(F)cc2)n1 (mixture of isomers) [Example 134, cis-3-[(4-fluorophenoxy)methyl]-2-[3-(5-fluropyrimidin-2-yl)-6-methylpyridine-2-carbonyl]-4-methyl-2-azabicyclo[3.1.1]heptane]",OX1 pKi (SPA binding),"[1]; Table 2, [3H]SB-674042 2 nM",7.85
same,OX2 pKi (SPA binding),"[2]; Table 2, [3H]EMPA 2 nM",7.03
"Cc1cccc(-c2sc(C)nc2C(=O)N2C3CC(C3)[C@@H](C)C2COc2ccc(F)cc2)n1 (mixture of isomers) [Example 137, cis-3-[(4-fluorophenoxy)methyl]-4-methyl-2-[2-methyl-5-(6-methylpyridin-2-yl)-1,3-thiazole-4-carbonyl]-2-azabicyclo[3.1.1]heptane]",OX1 pKi (SPA binding),"[1]; Table 2, [3H]SB-674042 2 nM",7.97
same,OX2 pKi (SPA binding),"[2]; Table 2, [3H]EMPA 2 nM",6.34
"Cc1ccc(-n2nccn2)c(C(=O)N2C3CC(C3)[C@H](C)C2CNc2ncc3ccccc3n2)n1 (stereo partly drawn) [Example 149, trans-N-({4-methyl-2-[6-methyl-3-(2H-,2,3-triazol-2-yl)pyridine-2-carbonyl]-2-azabicyclo[3.1.1]heptan-3-yl}methyl)quinazolin-2-amine]",OX1 pKi (SPA binding),"[1]; Table 2, [3H]SB-674042 2 nM",6.82
same,OX2 pKi (SPA binding),"[2]; Table 2, [3H]EMPA 2 nM",5.72
"Cc1cnc(NCC2[C@H](C)C3CC(C3)N2C(=O)c2nc(C)ccc2-n2nccn2)cn1 (mixture of isomers) [Example 216, cis-5-methyl-N-({4-methyl-2-[6-methyl-3-(2H-1,2,3-triazol-2-yl)pyridine-2-carbonyl]-2-azabicyclo[3.1.1]heptan-3-yl}methyl)pyrazin-2-amine]",OX1 pKi (SPA binding),"[1]; Table 2, [3H]SB-674042 2 nM",6.94
same,OX2 pKi (SPA binding),"[2]; Table 2, [3H]EMPA 2 nM",4.62
"Cc1nc(C(=O)N2C3CC(C3)[C@@H](C)C2CNc2nc3ccc(F)cc3s2)c(-c2ncccn2)s1 (mixture of isomers) [Example 162, cis-6-fluoro-N-({4-methyl-2-[2-methyl-5-(pyrimidin-2-yl)-1,3-thiazole-4-carbonyl]-2-azabicyclo[3.1.1]heptan-3-yl]methyl)-1,3-benzothiazol-2-amine]",OX1 pKi (SPA binding),"[1]; Table 2, [3H]SB-674042 2 nM",8.83
same,OX2 pKi (SPA binding),"[2]; Table 2, [3H]EMPA 2 nM",5.59
"Cc1nc(C(=O)N2C3CC(C3)[C@H](C)C2COc2ccc(F)cc2)c(-c2ccccn2)s1 (mixture of isomers) [Example 123, trans-3-[(4-fluorophenoxy)methyl]-4-methyl-2-[2-methyl-5-(pyridin-2-yl)-1,3-thiazole-4-carbonyl]-2-azabicyclo[3.1.1]heptane]",OX1 pKi (SPA binding),"[1]; Table 2, [3H]SB-674042 2 nM",8.02
same,OX2 pKi (SPA binding),"[2]; Table 2, [3H]EMPA 2 nM",6.12
"Cc1nc(C(=O)N2C(CNc3cc4ccccc4cn3)CC3CC2C3)c(-c2ccccc2)s1 (centres unmarked) [Example 59, N-[[2-(2-methyl-5-phenyl-1,3-thiazole-4-carbonyl)-2-azabicyclo[3.1.1]heptan-3-yl]methyl}isoquinolin-3-amine]",OX1 pKi (SPA binding),"[1]; Table 1, [3H]SB-674042 2 nM",8.1
same,OX2 pKi (SPA binding),"[2]; Table 1, [3H]EMPA 2 nM",7.46
Cc1nc(C(=O)N2C(COc3ccc(F)c(F)c3)CC3CC2C3)c(-c2ccccc2)s1 (centres unmarked) [Example 47],OX1 pKi (SPA binding),"[1]; Table 1, [3H]SB-674042 2 nM",7.61
same,OX2 pKi (SPA binding),"[2]; Table 1, [3H]EMPA 2 nM",6.91
"Cc1nc(C(=O)N2C3CC(C3)[C@H](C)C2COc2ccc(F)cn2)c(-c2ccccn2)s1 (mixture of isomers) [Example 117, trans-3-{[(5-fluoropyridin-2-yl)oxy]methyl}-4-methyl-2-[2-methyl-5-(pyridin-2-yl)-1,3-thiazole-4-carbonyl]-2-azabicyclo[3.1.1]heptane]",OX1 pKi (SPA binding),"[1]; Table 2, [3H]SB-674042 2 nM",7.13
same,OX2 pKi (SPA binding),"[2]; Table 2, [3H]EMPA 2 nM",5.47
"Cc1nc(C(=O)N2C3CC(C3)[C@@H](C)C2COc2ccc(F)cc2)c(-c2cnccn2)s1 (mixture of isomers) [Example 136, cis-3-[(4-fluorophenoxy)methyl]-4-methyl-2-[2-methyl-5-(pyrazin-2-yl)-1,3-thiazole-4-carbonyl]-2-azabicyclo[3.1.1]heptane]",OX1 pKi (SPA binding),"[1]; Table 2, [3H]SB-674042 2 nM",7.26
same,OX2 pKi (SPA binding),"[2]; Table 2, [3H]EMPA 2 nM",5.92
"Cc1ccc(-n2nccn2)c(C(=O)N2C3CC(C3)[C@@H](C)C2CNc2nc3ccc(F)cc3s2)n1 (mixture of isomers) [Example 152, cis-6-fluoro-N-({4-methyl-2-[6-methyl-3-(2H-1,2,3-triazol-2-yl)pyridine-2-carbonyl]-2-azabicyclo[3.1.1]heptan-3-yl}methyl)-1,3-benzothiazol-2-amine]",OX1 pKi (SPA binding),"[1]; Table 2, [3H]SB-674042 2 nM",8.68
same,OX2 pKi (SPA binding),"[2]; Table 2, [3H]EMPA 2 nM",6.1
"Cc1ccc(-n2nccn2)c(C(=O)N2C3CC(C3)[C@@H](C)C2CNc2cnc3cc(F)ccc3n2)n1 (single isomer, unassigned) [Example 200, 6-fluoro-N-{[(3R,4S) or (3S,4R)-4-methyl-2-[6-methyl-3-(2H-1,2,3-triazol-2-yl)pyridine-2-carbonyl]-2-azabicyclo[3.1.1]heptan-3-yl]methyl}quinoxalin-2-amine]",OX1 pKi (SPA binding),"[1]; Table 2, [3H]SB-674042 2 nM",8.24
same,OX2 pKi (SPA binding),"[2]; Table 2, [3H]EMPA 2 nM",6.37
